Results reported in ChEMBL document CHEMBL1201862, “PubChem BioAssay data set” (2004).
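Step 1: Grow cells in 96-well plates. Step 2: Expose to compound for 48 hours at 5 concentrations. Step 3: Interpolate endpoints linearly; if unreached, use highest concentration. GI50 is the concentration that inhibits growth by half.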 Activity calls are given as the source filed them. Rule as the data show it: active = GI50 up to about 1.1 µM and inactive = higher.

Tests used:
Experiment in all cases: DTP human tumour cell line panel, 48 h
[1] = test system: 786-0
[2] = test system: A549
[3] = test system: ACHN
[4] = test system: BT-549
[5] = test system: CAKI-1
[6] = test system: CCRF-CEM
[7] = test system: DU-145
[8] = test system: EKVX
[9] = test system: HCC 2998
[10] = test system: HCT-116
[11] = test system: HCT-15
[12] = test system: HL-60
[13] = test system: HOP-62
[14] = test system: HOP-92
[15] = test system: HT-29
[16] = test system: Hs-578T
[17] = test system: IGROV-1
[18] = test system: K562
[19] = test system: KM12
[20] = test system: LOX IMVI
[21] = test system: M14
[22] = test system: MCF7
[23] = test system: MDA-MB-231
[24] = test system: MDA-MB-435
[25] = test system: MDA-N
[26] = test system: MOLT-4
[27] = test system: Malme-3M
[28] = test system: NCI-H226
[29] = test system: NCI-H23
[30] = test system: NCI-H522
[31] = test system: OVCAR-3
[32] = test system: OVCAR-5
[33] = test system: OVCAR-8
[34] = test system: PC-3
[35] = test system: RPMI-8226
[36] = test system: SF-268
[37] = test system: SF-295
[38] = test system: SF-539
[39] = test system: SK-MEL-28
[40] = test system: SK-MEL-5
[41] = test system: SN12C
[42] = test system: SNB-19
[43] = test system: SR
[44] = test system: SW-620
[45] = test system: T47D
[46] = test system: TK-10
[47] = test system: U-251
[48] = test system: UACC-257
[49] = test system: UO-31
[50] = test system: A498
[51] = test system: COLO 205
[52] = test system: NCI-H460
[53] = test system: OVCAR-4
[54] = test system: SK-MEL-2
[55] = test system: SK-OV-3
[56] = test system: SNB-75
[57] = test system: UACC-62

Question: What does the source list for `CC(C)(C)OC(=O)C1C(=O)NC(=O)CC1C(COCc1ccccc1)OCc1ccccc1` (stereo not drawn)?
Answer: GI50 [1]: 24.3 µM (inactive); GI50 [2]: 30.4 µM (inactive); GI50 [3]: 23 µM (inactive); GI50 [4]: 32.1 µM (inactive); GI50 [5]: 50.4 µM (inactive); GI50 [6]: 25.5 µM (inactive); GI50 [7]: 39.7 µM (inactive); GI50 [8]: 25.3 µM (inactive); GI50 [9]: 25.7 µM (inactive); GI50 [10]: 18.6 µM (inactive); GI50 [11]: 21.6 µM; GI50 [12]: 21.4 µM (inactive); GI50 [13]: 12.1 µM (inactive); GI50 [14]: 15.5 µM (inactive); GI50 [15]: 18.7 µM (inactive); GI50 [16]: 23.1 µM (inactive); GI50 [17]: 22.9 µM (inactive); GI50 [18]: 30.1 µM (inactive); GI50 [19]: 17.8 µM (inactive); GI50 [20]: 19.2 µM (inactive); GI50 [21]: 18.9 µM (inactive); GI50 [22]: 19.9 µM (inactive); GI50 [23]: 17.2 µM (inactive); GI50 [24]: 19.1 µM (inactive); GI50 [25]: 18 µM (inactive); GI50 [26]: 17.5 µM (inactive); GI50 [27]: 19.8 µM (inactive); GI50 [28]: 17.6 µM (inactive); GI50 [29]: 32.6 µM (inactive); GI50 [30]: 15.8 µM (inactive); GI50 [31]: 21.8 µM (inactive); GI50 [32]: 12.2 µM (inactive); GI50 [33]: 29.3 µM (inactive); GI50 [34]: 12.4 µM (inactive); GI50 [35]: 20 µM (inactive); GI50 [36]: 26.7 µM (inactive); GI50 [37]: 20.5 µM (inactive); GI50 [38]: 21.6 µM (inactive); GI50 [39]: 18.1 µM (inactive); GI50 [40]: 17.3 µM (inactive); GI50 [41]: > 10 µM (inactive); GI50 [42]: 40.6 µM (inactive); GI50 [43]: 18 µM (inactive); GI50 [44]: 25.4 µM (inactive); GI50 [45]: 14.3 µM (inactive); GI50 [46]: 35 µM (inactive); GI50 [47]: 20.5 µM (inactive); GI50 [48]: 20.7 µM (inactive); GI50 [49]: 27.1 µM (inactive)

Question: Which GI50 [1] does the source give for `C[C@@H]1CC[C@H]2[C@H](C)C(OC3O[C@@H]4O[C@@]5(C)CC[C@H]6[C@H](C)CC[C@@H]([C@@H]3C)[C@@]46O5)O[C@@H]3O[C@@]4(C)CC[C@@H]1[C@]32O4` (stereo partly drawn) here?
Answer: > 100 µM (inactive)

Question: What about the GI50 [50] of the same molecule?
Answer: > 100 µM (inactive)

Question: What about the GI50 [2] of the same molecule?
Answer: > 100 µM (inactive)

Question: And the GI50 [3]?
Answer: > 100 µM (inactive)

Question: And the GI50 [4]?
Answer: > 100 µM (inactive)

Question: What about the GI50 [5] of the same molecule?
Answer: > 100 µM (inactive)

Question: What about the GI50 [6] of the same molecule?
Answer: > 100 µM (inactive)

Question: What about the GI50 [51] of the same molecule?
Answer: > 100 µM (inactive)

Question: And the GI50 [7]?
Answer: > 100 µM (inactive)

Question: And the GI50 [8]?
Answer: > 100 µM (inactive)

Question: And the GI50 [9]?
Answer: > 100 µM (inactive)

Question: What about the GI50 [10] of the same molecule?
Answer: > 100 µM (inactive)

Question: And the GI50 [11]?
Answer: > 100 µM

Question: And the GI50 [12]?
Answer: > 100 µM (inactive)

Question: And the GI50 [13]?
Answer: > 100 µM (inactive)

Question: And the GI50 [15]?
Answer: > 100 µM (inactive)

Question: And the GI50 [16]?
Answer: > 100 µM (inactive)

Question: What about the GI50 [18] of the same molecule?
Answer: > 100 µM (inactive)

Question: And the GI50 [19]?
Answer: > 100 µM (inactive)

Question: And the GI50 [20]?
Answer: > 100 µM (inactive)

Question: What about the GI50 [21] of the same molecule?
Answer: > 100 µM (inactive)

Question: What about the GI50 [22] of the same molecule?
Answer: > 100 µM (inactive)

Question: What about the GI50 [23] of the same molecule?
Answer: > 100 µM (inactive)

Question: And the GI50 [24]?
Answer: > 100 µM (inactive)

Question: What about the GI50 [25] of the same molecule?
Answer: > 100 µM (inactive)

Question: What about the GI50 [26] of the same molecule?
Answer: > 100 µM (inactive)

Question: What about the GI50 [27] of the same molecule?
Answer: > 100 µM (inactive)

Question: And the GI50 [28]?
Answer: > 100 µM (inactive)

Question: And the GI50 [29]?
Answer: > 100 µM (inactive)

Question: What about the GI50 [52] of the same molecule?
Answer: > 100 µM (inactive)

Question: And the GI50 [30]?
Answer: > 100 µM (inactive)

Question: And the GI50 [31]?
Answer: > 100 µM (inactive)

Question: And the GI50 [53]?
Answer: > 100 µM (inactive)

Question: What about the GI50 [32] of the same molecule?
Answer: > 100 µM (inactive)

Question: What about the GI50 [33] of the same molecule?
Answer: > 100 µM (inactive)

Question: What about the GI50 [34] of the same molecule?
Answer: > 100 µM (inactive)

Question: What about the GI50 [35] of the same molecule?
Answer: > 100 µM (inactive)

Question: And the GI50 [36]?
Answer: > 100 µM (inactive)

Question: What about the GI50 [37] of the same molecule?
Answer: > 100 µM (inactive)

Question: And the GI50 [38]?
Answer: > 100 µM (inactive)

Question: And the GI50 [39]?
Answer: > 100 µM (inactive)

Question: What about the GI50 [54] of the same molecule?
Answer: > 100 µM (inactive)

Question: What about the GI50 [40] of the same molecule?
Answer: > 100 µM (inactive)

Question: What about the GI50 [55] of the same molecule?
Answer: > 100 µM (inactive)

Question: What about the GI50 [41] of the same molecule?
Answer: > 100 µM (inactive)

Question: What about the GI50 [42] of the same molecule?
Answer: > 100 µM (inactive)

Question: What about the GI50 [56] of the same molecule?
Answer: > 100 µM (inactive)

Question: What about the GI50 [43] of the same molecule?
Answer: > 100 µM (inactive)

Question: What about the GI50 [44] of the same molecule?
Answer: > 100 µM (inactive)

Question: What about the GI50 [45] of the same molecule?
Answer: > 100 µM (inactive)

Question: And the GI50 [46]?
Answer: > 100 µM (inactive)

Question: And the GI50 [47]?
Answer: > 100 µM (inactive)

Question: What about the GI50 [48] of the same molecule?
Answer: > 100 µM (inactive)

Question: And the GI50 [57]?
Answer: > 100 µM (inactive)
